Assays:
[1] = molecular target: PI3 Kinase (p110a(E542K)/p85a)(h) (Homo sapiens (Human), UniProt P42336, E542K); assay: Kinase Profiler 10 μM panel
Description: In vitro kinase assays were conducted using Kinase Profiler services provided by Eurofins. The experimental method was as follows: the small molecule compound to be tested (0.001-10 μM), the protein kinase to be tested were incubated with a buffer containing substrate, 10 mM magnesium acetate, and [γ-^33P-ATP], the reaction was started by adding Mg\TPmix, after incubation for a period of time at room temperature, a 3% phosphate solution was added to the buffer to stop the reaction. Subsequently, 10 μL of the reaction mixture was quantitatively pipetted onto P30 filter paper, which was washed three times with 75 mM phosphate solution and then once with methanol. The P30 filter paper was air-dried and scintillation fluid was added for scintillation counting.

[2] = system: TNF α-induced SIRS; assay: TNF α-induced mouse SIRS model; type: in vivo
Description: TNF α formulated in sterile normal saline was administered at a dose of 500 μg/kg by tail vein injection for modeling. The body temperature of the mice was measured by an infrared electric thermometer. The orally-administrated vehicle was 25% castor oil in ethanol and 75% normal saline. Compounds 94 and 46 and RIPK1 positive compound GSK2982772 were administered orally before modeling with a dose of 40 mg/kg. Body temperature and the survival of mice were recorded every hour and recorded for 24 h and 48 h after 11 h.
This experiment established a TNF α-induced SIRS mouse model to evaluate the in vivo activity of compounds of the present invention. TNF α formulated in sterile normal saline was administered to mice at a dose of 500 μg/kg by tail vein injection for modeling. Since the measurement of rectal temperature would cause mechanical injury to mice and may interfere with the experimental results, an infrared electric thermometer was used to measure the body temperature of mice and the survival condition was observed. Compounds 94 and 46 were administered at a dose of 40 mg/kg once prior to modeling. The Vehicle group was given the corresponding vehicle control.

[3] = molecular target: hERG potassium channel (Homo sapiens (Human), UniProt Q12809); assay: cell-based
Sequence of hERG potassium channel (Q12809 whole entry): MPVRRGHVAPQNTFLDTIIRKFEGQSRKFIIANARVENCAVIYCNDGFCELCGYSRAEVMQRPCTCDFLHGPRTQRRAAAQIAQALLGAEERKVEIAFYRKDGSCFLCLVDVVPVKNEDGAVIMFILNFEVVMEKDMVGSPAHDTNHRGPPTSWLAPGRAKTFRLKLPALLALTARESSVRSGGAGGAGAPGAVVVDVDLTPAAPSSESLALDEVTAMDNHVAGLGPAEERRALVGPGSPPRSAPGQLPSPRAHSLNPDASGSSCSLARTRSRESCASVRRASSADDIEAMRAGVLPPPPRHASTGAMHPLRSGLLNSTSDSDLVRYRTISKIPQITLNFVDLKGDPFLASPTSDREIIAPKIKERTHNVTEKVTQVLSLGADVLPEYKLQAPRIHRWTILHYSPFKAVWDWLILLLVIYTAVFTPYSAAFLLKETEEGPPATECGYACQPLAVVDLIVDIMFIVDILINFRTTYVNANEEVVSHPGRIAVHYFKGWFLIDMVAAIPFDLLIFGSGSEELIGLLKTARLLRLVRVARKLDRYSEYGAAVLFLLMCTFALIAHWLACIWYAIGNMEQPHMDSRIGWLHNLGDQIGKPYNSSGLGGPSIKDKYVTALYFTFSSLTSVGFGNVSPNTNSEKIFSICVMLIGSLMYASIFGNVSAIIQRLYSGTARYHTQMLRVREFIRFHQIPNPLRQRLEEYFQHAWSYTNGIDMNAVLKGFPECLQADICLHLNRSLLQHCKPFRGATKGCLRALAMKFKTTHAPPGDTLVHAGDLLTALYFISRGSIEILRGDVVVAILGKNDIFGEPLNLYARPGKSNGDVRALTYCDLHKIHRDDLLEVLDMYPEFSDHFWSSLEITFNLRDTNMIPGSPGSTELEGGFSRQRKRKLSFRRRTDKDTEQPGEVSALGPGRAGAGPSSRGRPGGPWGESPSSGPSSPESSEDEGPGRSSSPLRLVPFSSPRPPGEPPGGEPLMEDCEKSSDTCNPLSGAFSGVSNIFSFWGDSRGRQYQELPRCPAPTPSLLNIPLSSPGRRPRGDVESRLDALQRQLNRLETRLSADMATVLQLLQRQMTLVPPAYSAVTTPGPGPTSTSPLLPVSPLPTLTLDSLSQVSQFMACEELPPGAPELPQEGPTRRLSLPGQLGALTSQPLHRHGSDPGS
Description: Stable HEK-hERG cells were washed with DPBS, digested with Trypsin or Tryple solution, resuspended in culture medium, and stored in centrifuge tubes for use.
hERG currents were recorded with a whole-cell patch clamp technique. The cell suspension was placed in a small petri dish and placed on an objective table of an inverted microscope. After attachment, the cells were perfused with extracellular fluid at a recommended flow rate of 1-2 mL/min. The glass microelectrode was pulled in two steps by a microelectrode puller, and the resistance in electrode fill solution was 2-5 MΩ.
After establishing the whole-cell recording mode, the clamping potential was kept at −80 mV. […] This set of pulses was repeated every 15 seconds throughout the experiment.
After the current was stable, continuous extracellular perfusion administration was conducted from low concentration to high concentration. The perfusion was continued from a low concentration until the pharmaceutical effect was stable, and then the perfusion of the next concentration was conducted.
if it was unstable, this concentration data would not be taken.
IC50 values were obtained by fitting the Hill equation (if applicable): […]

[4] = system: RIPK1 autophosphorylation, phosphorylation of RIPK3 and MLKL; assay: Regulation of RIPK1 signaling pathway (Western blot); type: cell-based; details: TNF α/Smac mimetic/Z-VAD-FMK induced, FIG. 4
Description: TNF α was purchased from PeproTech Inc., Smac mimetic and Z-VAD-FMK was purchased from Selleck Inc., RIPA lysis buffer was purchased from Beyotime Institute of Biotechnology, cocktail was purchased from MedChemExpress (MCE) Limited, PMSF protease inhibitors, sodium dodecylsulfonate SDS, and glycine were purchased from Sigma Inc., acrylamide, tris(hydroxymethyl)aminomethane Tris, ammonium persulfate APS and N,N,N′,N′-tetramethyl ethylenediamine TEMED were purchased from Wuhan Servicebio Technology Co., Ltd.
Extraction of total cellular protein: after the cells were treated by adding the corresponding concentration of Compounds 94 and 46 or blank vehicle to the cell supernatant and induced with TNF α/Smac mimetic/Z-VAD-FMK combination for a certain period of time, the supernatant was discarded, followed by washing three times with pre-cooled PBS or normal saline, then an appropriate volume of RIPA lysis buffer (containing 1% cocktail and 1% PMSF protease inhibitor) was added, the mixture was immediately placed on ice horizontally for lysis of 15 min, then the cell lysis buffer was scraped with a scraper and transferred to a 1.5 ml EP tube, and the cells were disrupted with a sonicator. The tubes were then centrifuged in a low temperature high speed centrifuge (12000 rpm, 15 min) to remove cell debris. […]

[5] = system: DSS-induced colitis; assay: DSS-induced mouse IBD model
Description: Female C57BL/6 mice weighing 17-20 g were used. […] Fresh DSS solution was changed on Days 2, 4, and 6, respectively. […] The Control group was given normal drinking water daily and corresponding vehicles orally starting on day 7. Body weights and survival rates of mice were recorded daily. Survival curves were fitted using Graphpad Prism 5.0 software. Mice (2/group) were sacrificed on day 12 and observed for changes in colon length.

Sequence of PI3 Kinase (p110a(E542K)/p85a)(h) (P42336 whole entry E542K): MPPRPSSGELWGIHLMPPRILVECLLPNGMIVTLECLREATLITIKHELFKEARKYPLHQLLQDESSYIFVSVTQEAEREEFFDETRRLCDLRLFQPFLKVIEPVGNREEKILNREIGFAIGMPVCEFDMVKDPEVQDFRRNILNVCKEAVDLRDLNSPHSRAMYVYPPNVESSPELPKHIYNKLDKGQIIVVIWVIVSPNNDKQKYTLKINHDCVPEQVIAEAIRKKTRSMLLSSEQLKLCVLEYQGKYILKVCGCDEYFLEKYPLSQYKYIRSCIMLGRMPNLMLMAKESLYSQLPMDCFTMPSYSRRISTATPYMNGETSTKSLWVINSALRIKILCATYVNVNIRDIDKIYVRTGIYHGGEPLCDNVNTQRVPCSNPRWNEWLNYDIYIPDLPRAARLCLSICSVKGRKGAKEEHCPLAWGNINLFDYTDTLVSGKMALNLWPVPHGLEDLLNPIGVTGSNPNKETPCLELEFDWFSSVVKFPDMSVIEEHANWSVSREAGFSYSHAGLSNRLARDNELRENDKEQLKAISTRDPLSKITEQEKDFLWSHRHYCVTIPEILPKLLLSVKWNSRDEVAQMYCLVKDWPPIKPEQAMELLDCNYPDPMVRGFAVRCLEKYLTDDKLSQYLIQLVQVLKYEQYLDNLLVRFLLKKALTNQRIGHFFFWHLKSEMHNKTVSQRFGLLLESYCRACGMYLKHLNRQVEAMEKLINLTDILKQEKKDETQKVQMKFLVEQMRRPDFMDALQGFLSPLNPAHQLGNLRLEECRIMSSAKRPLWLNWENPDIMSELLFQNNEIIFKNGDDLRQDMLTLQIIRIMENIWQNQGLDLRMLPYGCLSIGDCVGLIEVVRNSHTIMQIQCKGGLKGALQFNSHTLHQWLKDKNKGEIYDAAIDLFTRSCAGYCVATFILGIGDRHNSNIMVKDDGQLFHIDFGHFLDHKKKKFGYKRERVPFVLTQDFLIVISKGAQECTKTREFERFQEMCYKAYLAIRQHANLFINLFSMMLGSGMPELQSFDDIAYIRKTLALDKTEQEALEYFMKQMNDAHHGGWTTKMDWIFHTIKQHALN
Sequence of PI3 Kinase (p110a(E542K)/p85a)(h) (P27986 whole entry partner): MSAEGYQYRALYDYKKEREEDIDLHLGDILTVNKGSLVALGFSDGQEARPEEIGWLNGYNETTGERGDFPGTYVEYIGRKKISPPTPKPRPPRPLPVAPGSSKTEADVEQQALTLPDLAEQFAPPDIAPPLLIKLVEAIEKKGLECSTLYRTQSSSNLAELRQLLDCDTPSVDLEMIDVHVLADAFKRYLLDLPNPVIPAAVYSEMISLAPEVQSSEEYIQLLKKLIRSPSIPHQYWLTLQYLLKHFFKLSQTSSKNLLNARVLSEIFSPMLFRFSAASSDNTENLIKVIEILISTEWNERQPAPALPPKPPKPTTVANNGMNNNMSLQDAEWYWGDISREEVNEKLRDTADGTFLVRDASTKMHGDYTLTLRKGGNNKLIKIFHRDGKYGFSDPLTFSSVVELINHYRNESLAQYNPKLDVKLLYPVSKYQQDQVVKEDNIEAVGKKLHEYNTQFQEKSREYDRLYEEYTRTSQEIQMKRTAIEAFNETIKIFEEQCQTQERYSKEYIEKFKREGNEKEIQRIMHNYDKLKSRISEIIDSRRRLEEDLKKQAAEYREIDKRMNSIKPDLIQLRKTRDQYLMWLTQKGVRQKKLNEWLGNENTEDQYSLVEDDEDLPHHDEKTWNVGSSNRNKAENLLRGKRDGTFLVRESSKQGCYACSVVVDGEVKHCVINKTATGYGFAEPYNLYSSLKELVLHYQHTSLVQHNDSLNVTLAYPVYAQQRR

Structure (SMILES): C[C@H](NC(=O)c1c[nH]c2ccc(-c3ccc4nc(NC(=O)C5CC5)sc4c3)cc12)c1cccc(F)c1 [Compound 34, (S)-5-(2-(cyclopropanecarboxamido)benzo[d]thiazol-6-yl)-N-(1-(3-fluorophenyl)ethyl)-1H-indole-3-carboxamide]
- Inhibition ratio [1]: 38%

Structure (SMILES): C[C@H](NC(=O)c1cn(C)c2ccc(-c3ccn4nc(NC(=O)C5CC5)nc4c3)cc12)c1cccc(F)c1 [Compound 94, (S)-5-(2-(cyclopropanecarboxamido)-[1,2,4]triazolo[1,5-a]pyridin-7-yl)-N-(1-(3-fluorophenyl)ethyl)-1-methyl-1H-indole-3-carboxamide]
- Overall mortality ([2]; 40 mg/kg oral once before TNF α 500 μg/kg i.v., compared with Vehicle group): significantly reduced
- Body temperature of mice ([2]; 40 mg/kg oral once before TNF α 500 μg/kg i.v., within 11 h): relatively normal
- Protective effect compared with positive drug ([2]; 40 mg/kg oral, vs GSK2982772 40 mg/kg): better protective effect than positive drug GSK2982772
- IC50 [3]: > 30 µM
- Average inhibitory ratio on hERG potassium channel current ([3]; human, 30 μM): 3.40%
- Effect on necrotic signaling pathway (RIPK1 autophosphorylation, RIPK3 and MLKL phosphorylation) [4]: affected the phosphorylation of RIPK3 and MLKL downstream of RIPK1 by inhibiting its autophosphorylation
- Inhibition ratio/% [1]: −4%
- Death of mice ([5]; 40 mg/kg oral from day 7 after 2.5% DSS): no death by 14 days
- Body weight of mice ([5]; 40 mg/kg oral from day 7 after 2.5% DSS, FIG. 6): gradual increase in body weight
- Colon length of mice ([5]; 40 mg/kg oral, sacrificed on day 12, FIG. 7): basically equivalent to that of mice in Control group
- Therapeutic effect compared with positive drug ([5]; 40 mg/kg oral, vs GSK3145095 40 mg/kg): better therapeutic effect than positive drug GSK3145095

From patent publication US20230365546A1, “5-SUBSTITUTED INDOLE 3-AMIDE DERIVATIVES, PREPARATION METHOD AND USE THEREOF” (ORIGIANT PHARMACEUTICAL CO., LTD, priority 2020, published 2023)
